Source: patent US20210308171A1, “METHODS FOR COMBINATORIAL SCREENING AND USE OF THERAPEUTIC TARGETS THEREOF” (THE BROAD INSTITUTE, INC., priority 2018, published 2021)

Columns and labels:
[1] = tested on: 293T cells; test: SaCas9 tiling library 6-thioguanine resistance screen; format: cell-based
Protocol: FIG. 10—Development of SaCas9 on-target rules. (a) Representation of all SaCas9 sgRNAs tested according to group and gene. sgRNAs are grouped based on whether the target gene is assayed by 6-thioguanine resistance, cell viability, or vemurafenib resistance. Control sgRNAs are also indicated. (b) Log 2 fold change of sgRNAs relative to their starting abundance in the plasmid DNA library in cell viability and resistance experiments. That knockout of NUDTS confers 6-thioguanine resistance in 293T cells but not A375 cell is expected based on previous results^16. P-values: Kruskal-Wallis test with Dunn's multiple comparisons test for each gene relative to the set of non-targeting controls. Significance labels: ns, not significant; *P<0.05; **P<0.01; ***P<0.001; ****P<0.0001.
Applicants designed a second tiling library with all sgRNAs with an NNGRR PAM that targeted 9 genes with known phenotypes in viability and drug resistance assays, a total of 5,327 sgRNAs, including controls (FIG. 10a). Applicants performed viability screens in three cell lines (A375, 293T, MOLM13), and screened relevant cell lines for 6-thioguanine (A375, 293T) and vemurafenib resistance (A375).

[2] = tested on: Meljuso, OVCAR8, and A549 cells; test: Cell Titer Glo viability of cells transduced with single SaCas9 sgRNAs (MCL1, BCL2L1, BCL2L2 or controls) and treated with small molecule inhibitors; format: cell-based; details: 3 days; for synergy of small molecule with sgRNAs targeting MCL1 (cell viability): both sgRNAs targeting MCL1, dosed from 1 nM to 1 μM
[3] = tested on: MV4-11 (AML MLL-AF4) cells; test: BRD4 inhibitor dose response +/- WDR77 KO; format: cell-based
Description: FIG. 36—illustrates that WDR77 KO sensitizes MV4-11 (AML MLL-AF4) cells to AZD5153 treatment.

[4] = tested on: THP-1 (AML MLL-AF9) cells; test: BRD4 inhibitor dose response +/- WDR77 KO
[5] = tested on: Meljuso cells; test: Apoptosis Big Papi library screen with inhibitors of anti-apoptotic proteins; format: cell-based, human; details: 250 nM, on/off dosing

With `Nc1nc2nc[nH]c2c(=S)[nH]1` [6-thioguanine] the “effect of knockout of NUDTS on response to the drug” value [1] was “resistance”.

For `Cc1c(-c2ccc(N3CCc4cccc(C(=O)Nc5nc6ccccc6s5)c4C3)nc2C(=O)O)cnn1CC12CC3CC(CC(C3)C1)C2` [A-1331852], the “synergy of small molecule with sgRNAs targeting MCL1 (cell viability)” value [2] was “strongly synergized”.

With `COc1nnc2ccc(N3CCC(c4ccc(OCCN5CCN(C)C(=O)[C@H]5C)cc4)CC3)nn12` [AZD5153] the “effect of WDR77 KO on response to treatment” value (“effect of WDR77 KO on response” below) [3] was “sensitizes” and the “effect of WDR77 KO on response” value [4] was “sensitizes”.

`Cc1sc2c(c1C)C(c1ccc(Cl)cc1)=N[C@@H](CC(=O)OC(C)(C)C)c1nnc(C)n1-2` [JQ1] was tested, and the “effect of WDR77 KO on response” value [4] was “sensitizes”.

With `Cc1c(-c2c(-c3ccc(F)o3)sc3ncnc(O[C@H](Cc4ccccc4OCc4ccnn4CC(F)(F)F)C(=O)O)c23)ccc(OCCN2CCN(C)CC2)c1Cl` [S63845] the “synergy of small molecule with sgRNAs targeting BCL2L1 (cell viability)” value ([2]; sgRNAs targeting BCL2L1, dosed from 1 nM to 1 μM) was “synergized specifically” and the “synergy with BCL2L1 knockout (single gene effect in screen)” value ([5]; relative to no drug arm) was “synergized”.

In the case of `CC1(C)CCC(c2ccc(Cl)cc2)=C(CN2CCN(c3ccc(C(=O)NS(=O)(=O)c4ccc(N[C@H](CCN5CCOCC5)CSc5ccccc5)c(S(=O)(=O)C(F)(F)F)c4)cc3)CC2)C1` [navitoclax], the “synergy of small molecule with sgRNAs targeting MCL1 (cell viability)” value [2] is reported as “strongly synergized”, the “effect of knockout of BAX and PMAIP1 (Noxa) on response to the small molecule” value [5] is reported as “resistance” and the “effect of knockout of BCL2A1 on response to the small molecule” value [5] is reported as “sensitized”. The “synergy with MCL1 knockout (single gene effect in screen)” value ([5]; relative to no drug arm) was “synergized”.
